# Measurements reported in publication PMC4992173, “Divergent synthesis and identification of the cellular targets of deoxyelephantopins” (Nature Communications, 2016).
# Target: T1, PPARγ (Homo sapiens, UniProt P37231)
# T1 sequence (P37231 1-505): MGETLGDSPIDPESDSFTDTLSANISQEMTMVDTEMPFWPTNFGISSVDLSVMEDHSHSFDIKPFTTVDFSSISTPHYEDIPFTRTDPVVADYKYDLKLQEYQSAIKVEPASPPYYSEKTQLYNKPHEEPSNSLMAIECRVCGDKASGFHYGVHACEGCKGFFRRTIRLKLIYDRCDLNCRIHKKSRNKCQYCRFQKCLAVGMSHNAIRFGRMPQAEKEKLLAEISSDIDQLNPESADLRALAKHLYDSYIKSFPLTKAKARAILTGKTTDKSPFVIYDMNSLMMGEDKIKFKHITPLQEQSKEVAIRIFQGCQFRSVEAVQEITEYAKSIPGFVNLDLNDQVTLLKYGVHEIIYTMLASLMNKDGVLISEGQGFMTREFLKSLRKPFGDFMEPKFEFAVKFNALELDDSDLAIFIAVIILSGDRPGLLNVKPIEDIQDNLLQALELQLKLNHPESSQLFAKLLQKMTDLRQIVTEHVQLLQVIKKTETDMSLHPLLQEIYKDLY
# Experiment: IAA-competitive labelling of cysteines on PPARγ (LC-MS/MS)
# Assay type: binding
# Settings: 100 µM, 1 h
# Source text: Finally, we sought to understand the molecular basis for PPARγ binding by the synthetic analogues of deoxyelephantopin through identification of the precise covalently modified amino acid site. There is literature precedent for oxidized fatty acids containing an α,β-unsaturated ketone to form a covalent bond with a cysteine in the ligand-binding site of PPARγ[53]. More recently, synthetic ligands binding reversibly to a distinct site were identified. […] Bearing in mind that the structurally simplified, and thus less prone to MS/MS fragmentation, probe 23c binds PPARγ as efficiently as 24c (Supplementary Fig. 13), we treated the recombinant nuclear receptor with the former compound, digested the protein and analysed the resulting peptides by LC–MS/MS. […] While zinc fingers respond to oxidative stress through reaction at cysteines[55][56] and have been targeted by small molecules forming disulfide bridges, to the best of our knowledge, deoxyelephantopin is the first example of a small molecule that engages a zinc finger through a Michael addition. The success of Michael acceptors as a cysteine trap in current clinical development of covalent inhibitors points to the privileged reactivity profile of this moiety. Having identified the exact binding site, we then performed covalent docking of 19a using the protein–ligand docking program GOLD. […] Following the docking result, we mutated these two residues, transiently expressed the wild-type and the two PPARγ mutant forms in 293T cells and performed gel-based competitive experiments to determine relative binding affinities for 19a. […] Finally, it is interesting to note that SILAC experiment led to the identification of ZNF346, another zinc finger motif-containing protein. […]
# H2O (Buffer A) and 0.1% FA in MeCN (Buffer B). Peptides were eluted into the mass spectrometer at a flow rate of 300 nL/min. over a 240 min. linear gradient (3-35% Buffer B) at 50 °C. Data was acquired in data-dependent mode (top- N = ’ […]
# and isotope exclusion was enabled.
# MaxQuant analysis. The MS data was analyzed with MaxQuant (V1.5.2.8) and searched against the human proteome (Uniprot, 89,649 entries) and a common list of contaminants (included in MaxQuant). The first peptide search tolerance was set to 20 ppm, 10 ppm was used for the main peptide search and fragment mass tolerance was set to 0.02 Da. The false discovery rate for peptides, proteins and sites identification was set to 1%. The minimum peptide length was set to 6 amino acids and peptide re-quantification, label-free quantification (MaxLFQ) and “ ” were enabled. The minimal number of peptides per protein was set to two. Oxidized methionines and N-terminal acetylation were searched as variable modifications and carbamidomethylation of cysteines was searched as a fixed modification. For SILAC experiments 13C6 L-lysine and 13C6 15N4 L-arginine were set as heavy isotope labels and 12C6 L-lysine and 12C6 14N4 L-arginine as light isotope labels. […]
# IAA competition of 23c, 24c and DEP h ARγ. γ
# (500 ng in 9 µL PBS) was treated with either 100 µM DEP, 23c, 24c or DMSO (1 µL of 10x stock in DMSO) for one hour. Samples were denatured with 6 M urea in 50 mM NH4HCO3, […]
# in the dark. Samples were diluted to 2 M urea with 50 mM NH4HCO3, and digested with trypsin . μ . μ μ 2 for 12 hours at 37 °C. Samples were acidified to a final concentration of 5% acetic acid, desalted over a self-packed C18 spin column and dried. Samples were resuspended in 0.1% FA in water and analyzed by LC-MS/MS (see above). MS data was analyzed in MaxQuant (see above). […]
# [1] = peptide NKCQYCR (contains Cys190)
Compound,competition of iodoacetamide labelling of the Cys190-containing tryptic peptide [%],Ratio compound/DMSO (IAA-labelled peptide) (peptide ASGFHYGVHACEGCK),Ratio compound/DMSO (IAA-labelled peptide) (peptide CLAVGMSHNAIR),Ratio compound/DMSO (IAA-labelled peptide) (peptide IFQGCQFR),Ratio compound/DMSO (IAA-labelled peptide) (peptide LKLIYDRCDLNCR),Ratio compound/DMSO (IAA-labelled peptide) [1],Ratio compound/DMSO (IAA-labelled peptide) (peptide TQLYNKPHEEPSNSLMAIECR),Ratio compound/DMSO (IAA-labelled peptide) (peptide VCGDKASGFHYGVHACEGCK)
C#CCC[C@H](O)[C@H]1C(=C)C(=O)O[C@@H]1c1ccccc1 [23c],> 75,0.79,1.14,0.63,0.83,0.25,1.52,0.68
C#CCC[C@H](OC(=O)C(=C)C)[C@H]1C(=C)C(=O)O[C@@H]1c1ccccc1 [24c],> 75,0.72,1.40,0.60,0.87,0.08,1.72,0.65
C=C(C)C(=O)O[C@H]1CC2=C[C@@H](C/C(C)=C/[C@H]3OC(=O)C(=C)[C@H]13)OC2=O [deoxyelephantopin],> 75,1.05,0.94,0.73,0.96,0.00,0.94,0.81
